In patent US6355472B2, “Method for producing nucleoside-5′-phosphate ester” (Ajinomoto Co., Inc., priority 1996, dated 2002):

Assays:
[1] = molecular target: T1, acid phosphatase derived from Morganella morganii (Morganella morganii, UniProt P28581); assay type: biochemical, Morganella morganii NCIMB 10466
T1 construct: made in house; host or cells: Morganella morganii NCIMB 10466 (native strain, not recombinant; purified from cell-free extract)

[2] = test system: acid phosphatase derived from Escherichia blattae; assay type: biochemical, Escherichia blattae JCM 1650
[3] = molecular target: T2, acid phosphatase sample derived from Morganella morganii (Morganella morganii, UniProt P28581); experiment: Production of 5′-inosinic acid from various phosphate group donors by acid phosphatase sample; assay type: biochemical; settings: inosine 2 g/dl, phosphate group donor 10 g/dl, enzyme 50 units/dl, pH 4.0, 30° C., 3 hours
T2 construct: made in house; host or cells: Morganella morganii NCIMB 10466 (native strain, not recombinant; purified from cell-free extract)
Method: (§1) Inosine (2 g/dl) and sodium tripolyphosphate, sodium polyphosphate (trade name: Polygon P, produced by Chiyoda Chemical), disodium phenylphosphate, or disodium carbamyl phosphate (10 g/dl) as a phosphate group donor were dissolved in sodium acetate buffer (pH 4.0), to which the enzyme sample prepared in Example 1 was added so that its concentration was 50 units/dl. The reaction mixture was incubated at 30° C. for 3 hours while maintaining pH at 4.0.

[4] = test system: acid phosphatase sample derived from Escherichia blattae; experiment: as above; assay type: biochemical; settings: inosine 2 g/dl, phosphate group donor 10 g/dl, enzyme 50 units/dl, pH 4.0, 35° C., 3 hours
Method: as §1, with “Example 4” for “Example 1”, “at 35°” for “at 30°”

[5] = test system: Escherichia coli JM109/pEPI330; experiment: Production of 5′-inosinic acid from various phosphate group donors using microbial cells of the mutant strain; assay type: cell-based; settings: inosine 6 g/dl, phosphate group donor 12 g/dl, cells 200 mg/dl dry weight, pH 4.0, 35° C., 32 hours
Method: Escherichia coli JM109/pEPI330 into which the plasmid containing the mutant acid phosphatase gene had been introduced was inoculated to an L medium (50 ml) containing 100 μg/ml of ampicillin and 1 mM of IPTG, and it was cultivated at 37° C. for 16 hours.
Inosine (6 g/dl) and sodium tripolyphosphate, sodium polyphosphate (trade name: Polygon P, produced by Chiyoda Chemical), disodium phenylphosphate, or disodium carbamyl phosphate (12 g/dl) as a phosphate group donor were dissolved in 100 mM sodium acetate buffer (pH 4.0), to which the microbial cells described above were added to give a cell concentration of 200 mg/dl as converted into a dry weight of the cells. The reaction mixture was incubated at 35° C. for 32 hours while maintaining pH at 4.0. 5′-Inosinic acid was efficiently produced and accumulated by using any of the phosphate group donors. However, the accumulated amount of 5′-inosinic acid was the highest when polyphosphoric acid was used as the phosphate group donor.

E. coli JM109/pEPI380 = experiment: Production of 5′-inosinic acid from various phosphate donors using new mutant acid phosphatase gene-containing strain; assay type: cell-based; settings: inosine 6 g/dl, phosphate donor 15 g/dl, cells 100 mg/dl dry weight, pH 4.0, 35° C., 12 hours
Method: E. coli JM109/pEPI380 having introduced therein the plasmid containing the new mutant acid phosphatase gene was inoculated into 50 ml of an L medium containing 100 μg/ml of ampicillin and 1 mM of IPTG, and incubated at 37 C. for 16 hours.
Inosine (6 g/dl) and 15 g/dl of a tripolyphosphate, a polyphosphate (“Polygon P”, a trade name for a product of Chiyoda Kagaku K.K.), […] or disodium carbamylphosphate were dissolved in a 100-mM acetate buffer (pH 4.0). To this was added the above-mentioned strain such that the concentration reached 100 mg/dl in terms of the dry cell weight. The reaction was conducted at 35° C. for 12 hours while maintaining the pH at 4.0. 5′-Inosinic acid was formed and accumulated at good efficiency with any of the phosphate donors. Especially when a polyphosphate was used as a phosphate donor, 5′-inosinic acid was accumulated in the largest amount.

T1 sequence (P28581 21-249): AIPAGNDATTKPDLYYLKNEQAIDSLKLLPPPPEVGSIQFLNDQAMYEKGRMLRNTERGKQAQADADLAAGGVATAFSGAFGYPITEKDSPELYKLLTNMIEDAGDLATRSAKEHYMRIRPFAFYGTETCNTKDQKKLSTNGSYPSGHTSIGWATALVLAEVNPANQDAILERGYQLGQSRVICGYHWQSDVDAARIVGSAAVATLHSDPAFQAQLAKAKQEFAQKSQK
T2 sequence (P28581 21-249): as above

`[Ag+2]` [Ag^2+] was tested, and the “Effect of the addition of metal ion and inhibitor on activity” value [1] was “inhibited” and the “Effect of the addition of metal ion and inhibitor on activity” value [2] was “inhibited”.
In the case of `[Cu+2]` [Cu^2+], the “Effect of the addition of metal ion and inhibitor on activity” value [1] is reported as “inhibited” and the “Effect of the addition of metal ion and inhibitor on activity” value [2] is reported as “inhibited”.
`NC(=O)OP(=O)([O-])[O-].[Na+].[Na+]` [Disodium carbamyl phosphate, disodium carbamyl phosphate] was tested, and the “Produced 5′-inosinic acid” value [3] was 2.54 g/dL, the “Produced 5′-inosinic acid” value [4] was 1.53 g/dL and the “Produced 5′-inosinic acid” value [5] was 7.73 g/dL. For the same compound, the “Amount of 5′-inosinic acid formed” value (E. coli JM109/pEPI380) was 12.42 g/dL.
For `O=P([O-])([O-])Oc1ccccc1.[Na+].[Na+]` [Disodium phenylphosphate, disodium phenylphosphate], the “Produced 5′-inosinic acid” value [3] was 2.33 g/dL, the “Produced 5′-inosinic acid” value [4] was 1.50 g/dL and the “Produced 5′-inosinic acid” value [5] was 7.60 g/dL. For the same compound, the “Amount of 5′-inosinic acid formed” value (E. coli JM109/pEPI380) was 12.84 g/dL.
With `[Fe+2]` [Fe^2+] the “Effect of the addition of metal ion and inhibitor on activity” value [2] was “inhibited”.
For `[Hg+2]` [Hg^2+], the “Effect of the addition of metal ion and inhibitor on activity” value [1] was “inhibited” and the “Effect of the addition of metal ion and inhibitor on activity” value [2] was “inhibited”.
`[Pb+2]` [Pb^2+] was tested, and the “Effect of the addition of metal ion and inhibitor on activity” value [1] was “inhibited” and the “Effect of the addition of metal ion and inhibitor on activity” value [2] was “inhibited”.
In the case of `O=P(O)(O)OP(=O)(O)OP(=O)(O)O` [Sodium tripolyphosphate, sodium tripolyphosphate], the “Produced 5′-inosinic acid” value [3] is reported as 2.10 g/dL, the “Produced 5′-inosinic acid” value [4] is reported as 1.20 g/dL and the “Produced 5′-inosinic acid” value [5] is reported as 5.96 g/dL. For the same compound, the “Amount of 5′-inosinic acid formed” value (E. coli JM109/pEPI380) was 10.84 g/dL.
For `O=C(O)CI` [iodoacetic acid], the “Effect of the addition of metal ion and inhibitor on activity” value [1] was “inhibited” and the “Effect of the addition of metal ion and inhibitor on activity” value [2] was “inhibited”.
For `CC(=O)OP(=O)([O-])[O-].[K+].[Li+]` [potassium lithium acetylphosphate], the “Amount of 5′-inosinic acid formed” value (E. coli JM109/pEPI380) was 10.65 g/dL.
In the case of sodium polyphosphate, the “Produced 5′-inosinic acid” value [3] is reported as 2.72 g/dL, the “Produced 5′-inosinic acid” value [4] is reported as 1.79 g/dL and the “Produced 5′-inosinic acid” value [5] is reported as 8.84 g/dL. The “Amount of 5′-inosinic acid formed” value (E. coli JM109/pEPI380) was 13.35 g/dL.
